According to PubChem BioAssay AID1626 (SRMLSC, 2009):
pIC50: −log10 of the molar value.

System: M. tuberculosis H37Rv growth inhibition
Experiment: M. tuberculosis H37Rv growth inhibitors, H37Rv strain (AID 1626)
Conditions: for IC90: measured here: IC90 against H37Rv; for CC50: measured here: Vero cell cytotoxicity

| SMILES | pIC50 | IC90 [µM] | CC50 [µM] |
| --- | --- | --- | --- |
| Cc1nnc(NC(=O)c2ccc3ccccc3n2)s1 | 4.37 | > 100 | > 40 |
| c1ccc(C2=Nc3ccccc3OC2)cc1 | 5.33 | 8.31 |  |
| COc1cc(OC)c2c(-c3ccccc3)cc(=O)oc2c1C(CCN1CCCCC1)c1ccc2c(c1)OCO2 (stereo not given) | 5.04 | 12.8 | 13.6 |
| O=[N+]([O-])c1ccc(Sc2nc3ccccc3o2)c([N+](=O)[O-])c1 | 5.43 | 5.16 | 8.69 |
| O=C(Nc1ncc(Cc2ccccc2)s1)C1=NCCN1 | 4.94 | > 100 | > 40 |
| CCCCc1c(C)c(C#N)c2[nH]c3ccccc3n2c1=O | 4.64 | > 100 | 22.9 |
| CCCCOC(=O)Nc1ccc(C)c(Cl)c1 |  | > 100 |  |
| O=C(CNCc1ccco1)Nc1ccc(Oc2ccccc2)cc1 |  | > 100 | > 40 |
| COc1cc(/C=C/C(=O)c2cccc([N+](=O)[O-])c2)cc(OC)c1OC | 5.42 | 11.2 | 18.5 |
| Cc1ccc(NC(=O)CCSc2nnc(Cc3ccccc3)o2)cc1 | 4.78 | 29.3 |  |
| CCCC(=O)OCCNc1cc(Sc2nc3ccccc3[nH]2)c2nonc2c1[N+](=O)[O-] | 4.17 | > 100 | 23.5 |
| Cc1ccccc1Nc1c(-c2ccccn2)nc2c(C)cccn12 | 4.69 | > 100 | 29 |
| CN(C(=O)c1ccco1)c1nc2c(s1)CCCC2 |  |  | > 40 |
| O=C1Nc2ccccc2/C1=N\N=C\C1=C(N2CCOCC2)C(=C\c2ccccc2)/CC1 | 5.89 | 1.86 | > 40 |
| CCOC(=O)c1c(C)n(C)c2ccc(OC(C)C(=O)OC)cc12 (stereo not given) | 5.09 | 14.4 |  |
| COc1ccc(N=C2C(=O)N3CCCc4cccc2c43)cc1 |  | > 100 |  |
| CCOC(=O)c1ccc(N=Cc2nc3ccccc3n2C)cc1 | 4.90 | > 100 |  |
| CN(C)c1ccc(O)c2c1CC1CC3[C@@H](N(C)C)C(=O)C(C(N)=O)=C(O)[C@]3(O)C(=O)C1=C2O (stereo not given in full) | 5.50 | 7.87 | > 40 |
| CC(=O)Nc1nc2ccccc2n1Cc1ccccc1Cl | > 6.71 | > 100 | 16.3 |
| Cc1ccc(S/C=C\C(=O)c2ccccc2)cc1 | 5.26 | 8.53 |  |
| N#C/C(=C/c1ccc(-c2ccc(Br)cc2)o1)C(=O)NC1CCCCC1 |  | > 100 | > 40 |

| SMILES | pIC50 | IC90 [µM] | CC50 [µM] |
| --- | --- | --- | --- |
| CCCOC(=O)c1ccc(NC(=O)C2C3C=CC(O3)C2C(=O)O)cc1 (stereo not given) | 4.45 | > 100 |  |
| Nc1ccccc1SCC(=O)Nc1nc(-c2ccccc2)cs1 |  | > 100 | > 40 |
| CCOC(=O)CC(=O)Nc1ccc(C(=O)OCC)cc1 | 5.00 | > 100 |  |
| CCOc1cc(CNC(C)(C)CO)cc(Br)c1OCc1ccc(Cl)cc1Cl | 4.94 | 12.3 | 12.7 |
| OC(CNCc1ccco1)Cn1c2ccc(Br)cc2c2cc(Br)ccc21 (stereo not given) | 5.56 | 3.11 | 17.2 |
| CC1CCC(C(C)C)C(OC(=O)Cn2c(-c3ccc(F)cc3)[n+](C)c3ccccc32)C1 (stereo not given) | 5.16 | 11.4 |  |
| Cc1cccc(Nc2nnc(SCC(=O)Nc3cccnc3Cl)s2)c1 | 5.63 | 8.03 |  |
| O=C1C(=O)c2ccc(-c3ccccc3)cc2-c2ccccc21 | 5.83 | 1.66 | 3.09 |
| CCOC(=O)c1ccc(NC(=O)/C=C/c2cccs2)cc1 | 4.15 | > 100 |  |
| CCOC(=O)/C=C/C(=O)Nc1ccc(Oc2ccccc2)cc1 | 5.92 | > 100 | > 40 |
| O=C(Nc1ccc(C(F)(F)F)cc1)N1CCN(c2ccnc3cc(Cl)ccc23)CC1 | 5.06 | 15.4 | 8.22 |
| Nc1ccccc1Nc1ccccc1 | > 6.71 | 0.973 |  |
| CSCCC(NC(=O)c1cc([N+](=O)[O-])cc([N+](=O)[O-])c1)c1nc2ccccc2[nH]1 (stereo not given) | 5.27 | 5.96 |  |
| CSc1nc(N(C)C)c2ccccc2n1 | 4.37 | > 100 |  |
| COc1ccc(CCNc2cc(C)nc3c(-c4ccccc4)c(C)nn23)cc1OC | 5.45 | 8.82 |  |
| Cc1nccc(-c2ccc(-n3c(C)ccc3C)cc2)n1 |  | > 100 | > 40 |
| CCN(CC)Cc1nc2c(c(=O)[nH]1)C1(CCCCC1)Cc1ccccc1-2 | 5.17 | > 100 |  |
| O=C(CSc1ccccn1)Nc1ccc2ccccc2c1 | 5.06 | > 100 |  |
| CC1CC(C)(C)Nc2ccc(N=O)cc21 (stereo not given) | 5.24 | 6.38 | 6.76 |
| N#C/C(=C\c1ccccn1)c1nc2ccccc2s1 | 4.83 | > 100 | > 40 |
| O=C(/C=C/Sc1ccccc1)c1ccc(Cl)cc1 | 5.19 | 11.2 | 26.1 |

| SMILES | pIC50 | IC90 [µM] | CC50 [µM] |
| --- | --- | --- | --- |
| C/C(=N\N=C(/N)SC1CC(=O)N(c2ccc(Br)cc2)C1=O)c1cccs1 (stereo not given) | 5.03 | 16.8 | > 40 |
| Cc1cccc(OCCCCc2c(C)n[nH]c2C)c1C | 5.56 | 3.87 | 30.2 |
| CCOC(=O)c1ccc(NC(=O)c2nc[nH]c2C(=O)N[C@H](C)c2ccccc2)cc1 | 5.20 | 24.6 | 26 |
| CCCNC(=O)NC(=O)COc1ccc(-c2ccc(C#N)cc2)cc1 | 6.12 | > 100 |  |
| N#C/C(=C/c1cn(-c2ccccc2)nc1-c1cccc(OCc2ccc(F)cc2)c1)C(=O)NCCCn1ccnc1 | 5.38 | 6.45 | 22.5 |
| O=C1C=C(Nc2ccccc2O)c2ccccc2C1=O | 4.63 | 26.6 | 13.3 |
| CCOC(=O)Cc1csc(NC(=O)c2csc3c2CCCC3)n1 | 5.04 | 12.5 | > 40 |
| CC(C)OC(=O)CSc1ncnc2c1cnn2Cc1ccccc1 | 5.09 | 19 |  |
| Nc1ccc(OCc2ccco2)cc1 | 5.28 | > 100 |  |
| O=C(Nc1nc(-c2ccccn2)cs1)C12CC3CC(CC(O)(C3)C1)C2 | 5.44 | 7.8 | > 40 |
| CCOC(=O)CSc1ncnc2c1cnn2-c1ccc(C)cc1 | 5.00 | 22.5 |  |
| CSc1ccc(N=Nc2c(C)[nH]n(C)c2=O)cc1 | 5.13 | > 100 | > 40 |
| Cn1c(NCc2ccco2)nc2c1c(=O)n(Cc1ccc(Br)cc1)c(=O)n2C | 4.00 | > 100 | > 40 |
| CCCCCCCCOC(=O)c1c(CSC(=N)N)n(C)c2cc(Br)c(OC(C)=O)cc12 | 4.94 | 15 |  |
| CCCCn1c(=O)c(C(=O)Nc2cnccn2)c(O)c2ccccc21 | 5.24 | 6.45 | 18.2 |
| COc1cccc(-c2nnc(NC(=O)c3ccccc3Br)o2)c1 | 5.42 | 9.35 | > 40 |
| Cc1nn2c(NCc3ccccn3)cc(C(C)C)nc2c1-c1ccccc1 |  |  | > 40 |
| CCCCCc1cc(=O)oc2c(C(CCN3CCCC3)c3ccc(N(C)C)cc3)c(OC)cc(OC)c12 (stereo not given) | 5.36 | 6.04 | 14 |
| Cc1ccc(C(=O)CC(=O)c2cc(Cl)ccc2O)cc1 | 5.46 | 4.67 | 20.2 |
| O=C(Nc1nccs1)c1sc2ccccc2c1Cl | 4.82 | > 100 | > 40 |
| Cc1cc(C)c2c(n1)sc1c(N3CCCCC3)ncnc12 | 4.78 | > 100 |  |

| SMILES | pIC50 | IC90 [µM] | CC50 [µM] |
| --- | --- | --- | --- |
| Cc1ccc(C(=O)N2CCN(c3ccc(NC(=O)COc4ccccc4C)cc3)CC2)cc1 | 5.02 | > 100 | > 40 |
| O=C1/C(=C/c2ccccc2[N+](=O)[O-])COc2ccccc21 | 5.54 | 3.25 | 5.95 |
| Cc1cccc(C=Nc2ccc3c(c2)oc2ccccc23)c1O | 5.95 | > 100 |  |
| CC(=O)Nc1nc(-c2cc([N+](=O)[O-])cs2)cs1 | > 6.71 | > 100 |  |
| c1cc2c(cc1C1CCCCC1)c1c3n2CCCNC3CCC1 (stereo not given) | 5.22 | 6.63 | 6.99 |
| Cn1c(-c2c(N)n(-c3ccccc3)c3nc4ccccc4nc23)nc2ccccc21 | 6.48 | > 100 | > 40 |
| O=C(Nc1ccc(-c2csc(Nc3cccc(C(F)(F)F)c3)n2)cc1)c1cc([N+](=O)[O-])cc(C(F)(F)F)c1 | 5.13 | > 100 | 20.2 |
| Cc1ccc(NC(=O)NCC2CCN(Cc3cccc(Cl)c3)CC2)cc1Cl | 4.94 | 31.2 | 29.4 |
| Nc1nc(CCOc2ccc(F)cc2)cs1 | 4.65 | > 100 |  |
| CCOC(=O)CNC(=O)CSc1nc(-c2cccc(C)c2)ns1 | 5.83 | 8.29 |  |
| CC(=O)Nc1nc2ccccc2n1Cc1ccccc1C | 6.70 | 81 | 22.5 |
| O=Cc1ccc2noc(-c3ccc(F)cc3)c2c1 |  | > 100 |  |
| O=[N+]([O-])c1ncccc1Oc1nc(-c2cccnc2)nc2ccccc12 | 5.15 | > 100 |  |
| O=c1oc2ccc3ccccc3c2cc1-c1nc2ccccc2o1 | 5.55 | 7.33 |  |
| O=C(OCC#CCSc1nnc(-c2ccccc2)o1)c1ccco1 | 5.93 | 3.94 |  |
| CC1=CC(C)(C)Nc2ccc(OC(=O)c3ccco3)cc21 | 4.26 | > 100 | > 40 |
| CCOc1ccc(NC(C)c2cc(Cl)ccc2O)cc1 (stereo not given) | 4.98 | > 100 |  |
| O=c1[nH][nH]c(-c2ccccc2O)c1C(C[N+](=O)[O-])c1cccc(Cl)c1 (stereo not given) | 5.10 | 13.9 | 26.7 |
| O=C(COc1ccc2c(c1)OCO2)Nc1ccc2c(c1)oc1ccccc12 |  | > 100 | > 40 |
| COc1ccc(NC2(c3ccc(Cl)cc3)C(=O)c3ccccc3C2=O)cc1 |  | > 100 |  |
| CCn1c(NC(=O)c2cccc(Cn3cc(Cl)cn3)c2)nc2ccccc21 | 5.44 | > 100 | > 40 |
